Measured values taken from US12023341B2, “Platinum-acridine compounds and methods of treating cancers” (Wake Forest University, priority 2020, dated 2024).

Key:
HCT-116 cells = experiment: Uptake of compound 1 after epigenetic drugs, confocal fluorescence microscopy; format: cell-based, human; conditions: HCT-116, pre-screen of epigenetic drugs, alone or in combination
Description: We first pre-screened several epigenetic drugs in cultured HCT-116 cells in a multi-well plate format for their ability to increase the uptake of compound 1 using confocal fluorescence microscopy. […] These compounds were then tested again at escalating doses (2.5-20 mM).
Confocal fluorescence microscopy. Cells were seeded and allowed to attach overnight before any treatment. After cells were treated depend on purposes of different experiments, media was removed and dishes were rinsed 3 times with 1 mL of pre-warmed PBS buffer. Cells were then used fixed with 4% formaldehyde in PBS buffer for 15 minutes. Dishes were then washed an additional 3 times with 1 mL of pre-warmed PBS before imaging. Images were collected using a LSM 880 Confocal Microscope (Carl Zeiss Microscopy) using a 63X/1.4NA Plan-Apochromatic objective. The fluorescence of acridine was excited with a 405 nm (15 mW) laser at 4.4% and collected between 405-481 nm. To allow comparative fluorescence intensity analysis, excitation power, pinhole settings, PMT gain, and offset values across and within imaging sessions for each respective channel were not changed. The intensity of acridine-related fluorescence in treated cells was estimated by drawing a region of interest around each cell. A total of more than 100 individual cells across 3 views of 2 independent experiments were analyzed in this fashion. […]

hMATE1 = molecular target: T1, hMATE1 (Homo sapiens, UniProt Q96FL8); conditions: reported values; cited from earlier work
T1 sequence (Q96FL8 1-570): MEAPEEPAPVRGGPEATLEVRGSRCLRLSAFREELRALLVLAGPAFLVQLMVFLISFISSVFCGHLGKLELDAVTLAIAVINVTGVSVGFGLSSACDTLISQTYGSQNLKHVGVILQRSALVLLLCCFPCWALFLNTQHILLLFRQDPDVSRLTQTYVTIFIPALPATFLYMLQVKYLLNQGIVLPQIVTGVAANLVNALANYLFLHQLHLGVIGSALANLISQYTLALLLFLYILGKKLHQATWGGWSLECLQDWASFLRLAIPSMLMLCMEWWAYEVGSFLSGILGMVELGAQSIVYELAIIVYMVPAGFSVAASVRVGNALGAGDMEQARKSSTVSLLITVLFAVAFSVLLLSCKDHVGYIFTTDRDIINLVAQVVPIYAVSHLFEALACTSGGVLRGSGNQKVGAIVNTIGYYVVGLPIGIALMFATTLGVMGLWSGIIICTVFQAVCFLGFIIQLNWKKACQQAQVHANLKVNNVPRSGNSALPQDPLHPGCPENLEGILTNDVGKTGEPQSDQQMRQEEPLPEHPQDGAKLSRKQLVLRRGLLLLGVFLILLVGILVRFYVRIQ

Row | SMILES | uptake of compound 1 (acridine-associated blue fluorescence) (HCT-116 cells) | Ki (hMATE1) [nM]
1 | CCN(c1cc(-c2ccc(CN3CCOCC3)cc2)cc(C(=O)NCc2c(C)cc(C)[nH]c2=O)c1C)C1CCOCC1 [EPZ-6438] | enhanced uptake of compound 1 | 
2 | CS(=O)(=O)c1ccc(-c2cnc(NCc3ccco3)n3cnnc23)cc1 [EED226] | enhanced uptake of compound 1 | 
3 | CCc1nc(N)nc(N)c1-c1ccc(Cl)cc1 [pyrimethamine] |  | 77 to 93
